Experimental findings from patent US20040185510A1, “Use of labelled CCK-B receptor ligands for the detection and localization of malignant human tumours” (priority 1996, published 2004) are described below.

Non-standard residues stand in square brackets, D forms with d. No end group written: not given here. Nle = CCCC[C@H](N)C(=O)O

The target of assay [1] is T1, CCK-B receptors in medullary thyroid carcinoma (MTC) tissue sections (Homo sapiens, UniProt P32239).
T1 construct: Receptor autoradiography is performed on 10- and 20-μm thick cryostat sections of the various tumour samples; from tissue; host or cells: human medullary thyroid carcinoma (MTC) tissue sections
T1 sequence (P32239 1-447): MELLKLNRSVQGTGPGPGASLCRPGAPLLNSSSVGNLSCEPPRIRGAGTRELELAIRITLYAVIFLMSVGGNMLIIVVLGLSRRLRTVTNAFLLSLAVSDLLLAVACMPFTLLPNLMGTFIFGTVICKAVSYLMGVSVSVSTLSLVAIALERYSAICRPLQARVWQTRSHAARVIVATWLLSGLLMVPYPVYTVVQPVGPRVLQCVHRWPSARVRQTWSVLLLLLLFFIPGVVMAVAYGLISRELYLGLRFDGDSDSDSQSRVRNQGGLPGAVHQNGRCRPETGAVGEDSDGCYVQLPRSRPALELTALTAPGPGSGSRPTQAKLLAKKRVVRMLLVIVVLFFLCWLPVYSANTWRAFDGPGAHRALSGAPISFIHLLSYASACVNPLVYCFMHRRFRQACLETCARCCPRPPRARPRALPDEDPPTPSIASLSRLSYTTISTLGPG
Put plainly: Receptor autoradiography: displacement of [125I]-CCK-10 analog (compound 15) binding to MTC tissue sections. The conditions noted are these: increasing concentrations of unlabelled peptide, optical density in tumour area.
Description: Receptor autoradiography is performed on 10- and 20-μm thick cryostat sections of the various tumour samples, as described by Reubi et al. (Cancer Res. 1990, 50, 5969-5977).
The tissues are cut on a cryostat, mounted on microscopes slides, and then stored at −20° C. for at least 3 days to improve adhesion of the tissue to the slide. The slide-mounted tissue sections are allowed to reach room temperature and are preincubated in 50 mmol/l Tris-HCl, 130 mmol/l NaCl, 4.7 mmol/l KCl, 5 mmol/l MgCl2, 1 mmol/l ethylene glycol-bi(β-aminoethylether)-N,N,N′,N′-tetraacetic acid, and 0.5% bovine serum albumin, pH 7.4 (preincubation solution), for 30 min. at 25° C. […] The sections are subsequently exposed to a 3H-Ultrofilm for 1 week, to detect the precise location of the radioactivity. […]
Tissue sections are incubated with 20,000 cpm/100 μl [^125I]-CCK-10 and increasing concentrations of unlabelled CCK-8 (unsulfated)(▴), CCK-8 (sulfated) (•) or somastotatin (∘). Each point represents the optical density of binding measured in the tumour area. […]
The displacement curves of DTPA substituted CCK-analogs, prepared as described in Example 2, are measured in order to determine the effect of the DTPA group and of substitution of some amino acids by other amino acids. […]
Each point represents the optical density of binding measured in the tumour area. […]

In assay [2] the target is T1, CCK-B receptors in medullary thyroid carcinoma (MTC) tissue sections. Put plainly: Receptor autoradiography: displacement of [125I]-desulfated-CCK-10 (compound 13 or 14) binding to MTC tissue sections. The conditions noted are these: for affinity of the mono 125I-iodinated radioligand: the two mono-iodinated compounds compared with each other.
Description: The tissues are cut on a cryostat, mounted on microscopes slides, and then stored at −20° C. for at least 3 days to improve adhesion of the tissue to the slide. The slide-mounted tissue sections are allowed to reach room temperature and are preincubated in 50 mmol/l Tris-HCl, 130 mmol/l NaCl, 4.7 mmol/l KCl, 5 mmol/l MgCl2, 1 mmol/l ethylene glycol-bi(β-aminoethylether)-N,N,N′,N′-tetraacetic acid, and 0.5% bovine serum albumin, pH 7.4 (preincubation solution), for 30 min. at 25° C. The slides are then incubated in a solution containing the same medium as the preincubation solution except the bovine serum albumin is omitted, and the following compounds are added: 20000 dpm/100 μl of ^125I-CCK, 0.025% bacitracin, 1 mmol/l dithiothreitol, 2 μg/ml chymostatin, and 4 μg/ml leupeptin, pH=6.5. The slides are incubated at room temperature with the radioligand for 150 min., as described by Mantyh et al. (Gasteroenterology 1994, 107, 1019-30). To estimate non-specific binding, paired serial sections are incubated as described above, except that CCK-8 (sulfated) is added to the incubation medium. After the incubation, the slides are rinsed with four washes of 30 sec each in ice-cold preincubation solution, pH 7.4, dipped in ice-cold water, and then quickly dried in a refrigerator under a stream of cold air. The sections are subsequently exposed to a 3H-Ultrofilm for 1 week, to detect the precise location of the radioactivity.
Each point represents the optical density of binding measured in the tumour area. Non-specific binding is subtracted from all values.

On to “^115In-DTPA-Asp-Tyr-Nle-Gly-Trp-Nle-Asp-Phe-NH2 [compound 25]”, for which the “displacement of [125I]-CCK-10 analog (compound 15) binding” value in assay [1] was “complete displacement”.
On to “^115In-DTPA-DAsp-Tyr-Nle-Gly-Trp-Nle-Asp-Phe-NH2 [compound 26]”, for which, in assay [1], the “displacement of [125I]-CCK-10 analog (compound 15) binding” value was “complete displacement”.
“D-Tyr-Gly-Asp-[^125I-Tyr]-Nle-Gly-Trp-Nle-Asp-Phe-NH2 [compound 14]”: the “affinity of the mono 125I-iodinated radioligand” value in assay [2] is “same affinity”.
[dY]GDY[Nle]GW[Nle]DF-NH2 [compound 12]: the “displacement of [125I]-desulfated-CCK-10 (compound 13 or 14) binding” value in assay [2] (increasing concentrations of unlabelled peptide) is reported as “complete displacement”.
On to “[^125I-D-Tyr]-Gly-Asp-Tyr-Nle-Gly-Trp-Nle-Asp-Phe-NH2 [compound 13]”, for which the “affinity of the mono 125I-iodinated radioligand” value in assay [2] is “same affinity”.
